Data on 1 compound can be found in patent US20200016152A1, “TREATMENT OF DISEASES” (Ampio Pharmaceuticals, Inc., priority 2010, published 2020).

“Also recorded” adds a separate entry of the source.

The test system of test [1] is human retinal endothelial cells. The experiment in a line: ECIS transendothelial electrical resistance (TER), retinal endothelial cells, 96-well plates. Format: cell-based. The procedure:
Assays were performed to determine the effect of DA-DKP on transendothelial electrical resistance (TER) of human renal glomerular microvascular endothelial cells (ACBRI 128, Cell Systems Corporation (exclusive distributor for Applied Cell Biology Research Institute), Kirkland, Wash.). Electrical resistance was measured using the electric cell-substrate impedance sensing (ECIS) system (ECISZθ, obtained from Applied Biophysics) with 8-well multiple electrode plates (8W10E). Each well of the plates was coated with 5 μg/cm^2 fibronectin in HBSS by adding the fibronectin in a volume of 100 μl per well and incubating the plates for 30 minutes in a 37° C. incubator with 5% CO2. The fibronectin solution was removed, and 400 μl of EGM-2 culture medium (Lonza) was added to each well. The plates were connected to the ECISZθ system and were electrically stabilized. […] ECIS (resistance) was monitored for 90 hours.
Assays were performed to determine the effect of DA-DKP on transendothelial electrical resistance (TER) of human retinal endothelial cells (ACBRI 181, Cell Systems Corporation (exclusive distributor for Applied Cell Biology Research Institute), Kirkland, Wash.). Electrical resistance was measured using the electric cell-substrate impedance sensing (ECIS) system (ECISZθ, obtained from Applied Biophysics) as described in Example 1, but using 96-well multiple electrode plates […].

The test system of test [2] is human renal glomerular microvascular endothelial cells. The experiment in a line: ECIS transendothelial electrical resistance (TER), glomerular endothelial cells. Type of test: cell-based. The procedure:
Assays were performed to determine the effect of DA-DKP on transendothelial electrical resistance (TER) of human renal glomerular microvascular endothelial cells (ACBRI 128, Cell Systems Corporation (exclusive distributor for Applied Cell Biology Research Institute), Kirkland, Wash.). Electrical resistance was measured using the electric cell-substrate impedance sensing (ECIS) system (ECISZθ, obtained from Applied Biophysics) with 8-well multiple electrode plates (8W10E). Each well of the plates was coated with 5 μg/cm^2 fibronectin in HBSS by adding the fibronectin in a volume of 100 μl per well and incubating the plates for 30 minutes in a 37° C. incubator with 5% CO2. The fibronectin solution was removed, and 400 μl of EGM-2 culture medium (Lonza) was added to each well. The plates were connected to the ECISZθ system and were electrically stabilized. The EGM-2 medium was aspirated and replaced with 200 μl of EGM-2 culture medium containing 100,000 cells per well. The plates were reconnected to the ECISZθ system and incubated for 24 hours in a 37° C. incubator with 5% CO2. The EGM-2 medium was aspirated and replaced with 400 μl of fresh EGM-2 culture medium per well. The plates were reconnected to the ECISZθ system and incubated for 6 hours in a 37° C. incubator with 5% CO2. Solutions of the test compounds in HBSS were prepared and placed in the incubator to equilibrate. The test compounds were then added to appropriate wells at the following final concentrations: DA-DKP (100 μM) (Sigma) and TNFα (1 ng/ml) (Sigma). ECIS (resistance) was monitored for 90 hours.

Test [3] concerns RhoA. The experiment in a line: Rho activation assay (GLISA) in retinal endothelial cells. Type of test: cell-based, human. The procedure:
This experiment was performed using a commercially-available Rho activation assay (GLISA) purchased from Cytoskeleton, Denver, Colo., following the manufacturer's protocol. Briefly, passage 8 or 12 human retinal endothelial cells (ACBRI 181, Applied Cell Biology Research Institute, Kirkland, Wash.) were cultured on fibronectin-coated (1 μg/cm^2) 6-well tissue culture plates using EGM-2 culture medium (Lonza) for 24 hours in a 37° C. incubator with 5% CO2 (30,000 cells/well in total volume of 3 ml). Then, the medium was aspirated and replaced with Ultraculture medium supplemented with 0.1% fetal bovine serum, L-glutamine, sodium pyruvate, penicillin/streptomycin and ITSS (insulin, transferrin sodium selenium) (all from Lonza) to serum starve the cells and reduce the background level of RhoA. The cells were cultured for 24 hours in a 37° C. incubator with 5% CO2. Test compounds diluted in HBSS were placed in the incubator to equilibrate before addition to the cells. Then, 150 μl of each test compound was added to the appropriate culture wells, and the plates were incubated in the incubator for an additional 15 minutes. Then, thrombin was added to appropriate wells. After 1 minute, the cells were washed one time with 1.5 ml phosphate buffered saline and were then lysed with 100 μl GLISA lysis buffer supplemented with protease inhibitors. The extracts were scraped, transferred to microcentrifuge tubes and transferred to ice to preserve the active form of RhoA. All extracts were then cleared of debris by spinning at 10,000 rpms for 2 minutes at 4° C. The supernatants were transferred to new tubes and placed back on ice. Aliquots of each extract were removed for the GLISA assay and for protein determinations. All protein concentrations were within 10%, and the extracts were used at the achieved concentrations (equates to 15 total protein per well). The GLISA assay was performed using the reagents supplied in the kit.

Test [4] has as its system human retinal endothelial cells. Nature of the test: Actin stress fiber formation (rhodamine-phalloidin F-actin staining). Type of test: cell-based. As to conditions: 15 minutes and 3 hours. The procedure:
Passage 12 human retinal endothelial cells (ACBRI 181, Cell Systems Corporation (exclusive distributor for Applied Cell Biology Research Institute), Kirkland, Wash.) were seeded into 16-chamber glass slides coated with 5 μg/cm^2 fibronectin at 5000 cells per well in a total volume of 200 μl of EGM-2 medium (Lonza). The slides were cultured in a 37° C. incubator with 5% CO2 for 48 hours with daily medium changes. Then, the test compounds (DA-DKP, S1P and TNFα), diluted in Hanks Balanced Salt Solution (HBSS; Lonza), were added to give the following final concentrations: DA-DKP (100 μM) (Sigma), TNFα (1 ng/ml) (Sigma), and S1P (1 μM) (Sigma). The slides were incubated with the test compounds for 15 minutes or 3 hours in a 37° C. incubator with 5% CO2. After this incubation, the medium was aspirated, and the cells were fixed using 3.6% formaldehyde in phosphate buffered saline (PBS) for ten minutes at room temperature. All wells were then washed two times with 100 μl PBS. The cells were permeabilized using a 0.1% Triton X-100 in PBS for 5 minutes. All wells were then washed two times with 100 μl PBS, and 50 μl of a 1:40 dilution of rhodamine-phalloidin (Invitrogen) in PBS was added to the cells to stain for F-actin and left on the cells for 20 minutes at room temperature. All wells were then washed two times with 100 μl PBS. Then 100 μl PBS was added to each well and the cells were observed and photographed using an inverted microscope using a rhodamine (ex530/em590) filter.

Setting [5] is: passage 8 cells, 100 μM + 0.1 U/ml thrombin.
Setting [6] is: passage 8 cells, 100 μM, no thrombin.
Setting [7] is: passage 12 cells, 100 μM + 0.1 U/ml thrombin.
The mark [8] stands for this setting: passage 12 cells, 100 μM, no thrombin.

On to `C[C@@H]1NC(=O)[C@H](CC(=O)O)NC1=O` [DA-DKP], for which the “ECIS (TER) increase, comparison of doses” value in test [1] (100 μM) is on record as “greatest increase”. Besides, the “ECIS (TER)” value in test [1] (doses 0.5 μM, 5.0 μM, 50 μM and 100) is on record as “dose-dependent increase in ECIS (TER)”. Also, the “effect on TNFα-induced drop in ECIS” value in test [2] (100 μM DA-DKP with TNFα 1 ng/ml, not significant) is “prevent some of the TNFα-induced drop in ECIS”. Also, in test [2] (100 μM alone), the “ECIS increase persisting after treatment” value was found to be 35 h, the “start of ECIS increase after treatment” value was “about 5.0 hours” and the “time at which ECIS increase reached significance after treatment” value came out at 12 h. For the same compound, the “ECIS (resistance) as compared to untreated cells” value in test [2] (100 μM alone, glomerular endothelial cells, monitored 90 hours) is “increase of ECIS”. For the same compound, in test [3] (setting [5]), the “Mean OD (active RhoA)” value worked out at 0.377 and the “Percent Inhibition vs. Thrombin” value is listed as 40.04%. Besides, in test [3] (setting [6]), the “Mean OD (active RhoA)” value was 0.110 and the “Percent Inhibition vs. Untreated Control” value is recorded as −7.88%. Also, in test [3] (setting [7]), the “Mean OD (active RhoA)” value was determined as 0.752 and the “Percent Inhibition vs. Thrombin” value turned out to be 46.82%. In addition, in test [3] (setting [8]), the “Mean OD (active RhoA)” value turned out to be 0.389 and the “Percent Inhibition vs. Untreated Control” value is 14.52%. In addition, the “effect on cortical rings of S1P” value in test [4] (100 μM DA-DKP with S1P 1 μM) is “enhance the cortical rings; also recorded: strengthen the protective effects of S1P”. Also, in test [4] (100 μM DA-DKP with TNFα 1 ng/ml), the “effect on stress fibers caused by TNFα” value is recorded as “decreased the stress fiber formation and/or the thickness of the fibers; also recorded: reversed the formation of stress fibers induced by TNFα”.
